According to patent US20080019961A1, “Hedgehog signaling pathway antagonist cancer treatment” (Regents of the University of Michigan, priority 2006, published 2008):
Like-named read-outs stand apart in the source and are kept apart here. Square brackets hold non-standard residues; d marks the D form. Peptide text beside a SMILES is read from it. * marks the point of attachment. Nle = CCCC[C@H](N)C(=O)O; Cbz = O=C(OCc1ccccc1)*

Assays:
Assay type in all cases: cell-based, human
[1] = system: mammary stem/progenitor cells in mammospheres; assay: Primary and secondary mammosphere formation (in vitro self-renewal assay)
[2] = system: PTCH1, Gli1, Gli2 and HES1 mRNA; assay: Hh and Notch pathway gene mRNA in mammospheres by real-time RT-PCR; settings: for block of Shh-induced PTCH1, Gli1, Gli2 and HES1 expression: 3 μg/ml Shh with 300 nM Cyclopamine or 5 μM GSI; for block of DSL-induced HES1, PTCH1, Gli1 and Gli2 expression: 10 μM DSL with 5 μM GSI or 300 nM Cyclopamine
Procedure: Single cells from epithelial organoids were plated in 6-well ultra-low attachment plates (Coming) at a density of 100,000 viable cells/ml. Cells were cultured in 2 ml of a serumfree MEBM per well. […] Cells were incubated for 7 days in the presence of different treatments as follows. For the treatment with Hedgehog agonists and antagonist, Shh was used at 1.5 μg/ml, 3 μg/ml and 6 μg/ml in the presence or absence of 300 riM of CP or 5 μM of GSI. CP was used at 150 nM, 300 nM and 600 nM concentrations, and the control was 12% 1×PBS with 0.06% BSA. For the treatment with Notch agonists and antagonist, DSL was used at 10 μM in the presence or absence of 5 μM of GSI or 300 nM of CP, and the controls consisted of 10 μM of scrambled Notch peptide. All treatments were continued for 10 days, with agonists and antagonists added every two or three days when medium was changed.
Mammospheres were then collected for in vitro self-renewal assays and Real-time quantitative RT-PCR. For reverse-transcriptase reactions, 1 μg of total RNA from mammospheres or differentiated cells on collagen-coated plates was reverse transcribed with 200 U M-MLV Reverse Transcriptase (GibcoBRL) at 42° C. for 1 hour in the presence of 5 mM each of dATP, dCTP, dGTP and dTTP, 4 μl 5× 1 st strand buffer (GibcoBRL), 0.01M DDT, 1 U RNA Guard RNase inhibitor (GibcoBRL), and 2.5 µM random primers in a total volume of 20 μl. The reaction was terminated by heating to 95° C. for 3 minutes. Real-time quantitative PCR (TaqMan™) primers and probes were purchased from AppliedBiosytems as Assays-on-Demand™ Gene Expression Products. Real-time PCRs were performed following the supplier's instructions (Applied Biosystems). 20 μl of PCR mixture contained 10 μl of 2× Taqman™ universal PCR Master Mix, 1 μl of 20× working stock of gene expression assay mix, and 50 ng of RNA converted cDNA. PCR was performed in a ABI PRISM® 7900HT sequence detection system with 384-Well block module and automation accessory (Applied Biosystems) by incubation at 50° C. for 2 min and then 95° C. for 10 min followed by 40 amplification cycles (15 s of denaturation at 95° C. and 1 min of hybridization and elongation at 60° C.). The reaction for each sample was performed in quadruplicates. Fluorescence of the PCR products was detected by the same apparatus. The number of cycles that it takes for amplification plot to reach the threshold limit, the Ct-value was used for quantification. RPLP0 was used for normalization.
In order to determine whether activation of the Notch pathway could affect Hh targets, Notch signaling was activated by utilizing the DSL ligand which binds to all Notch receptors (Dontu et al., 2004).

[3] = system: Bmi-1 mRNA; assay: Bmi-1 mRNA in mammospheres by real-time RT-PCR; settings: for block of Shh-induced Bmi-1 expression: Shh with Cyclopamine or GSI
[4] = system: mammosphere branching morphogenesis; assay: Mammosphere branching morphogenesis in 3-D Matrigel culture; settings: 300 nM Cyclopamine
Procedure: Briefly, 30 mammospheres were suspended in 1 ml of BD Matrigel™ Matrix (Cat. 354234, BD Biosciences, Palo Alto, Calif.) and Ham's F-12 medium (BioWbittaker) with 5% serum at a ratio of 1:1, and plated 1 ml of the mixture into one well of 24-well cold plates and each group of mammospheres was performed in quadruplicates. After the matrigel was solidified, 1 ml of Ham's F-12 medium (BioWhittaker) with 5% serum was added to the top of the matrigel. The experiments were repeated with mammospheres derived from at least three different patients.

Structure (SMILES)	block of the Shh effect on mammary stem cell self-renewal ([1]; 3 μg/ml Shh with 300 nM Cyclopamine or 5 μM GSI)	block of DSL-stimulated mammary stem cell self-renewal ([1]; 10 μM DSL with 5 μM GSI or 300 nM Cyclopamine)	block of Shh-induced PTCH1, Gli1, Gli2 and HES1 expression [2]	block of DSL-induced HES1, PTCH1, Gli1 and Gli2 expression [2]	block of DSL-induced Bmi-1 expression ([3]; DSL with GSI or Cyclopamine)	block of Shh-induced Bmi-1 expression [3]	Cyclopamine inhibition of primary mammosphere formation on addition of Shh [1]	Cyclopamine inhibition of secondary mammosphere formation on addition of Shh [1]	block of DSL-stimulated mammary stem cell self-renewal [1]	block of the Shh effect on mammary stem cell self-renewal [1]	decrease of average cell number in primary mammospheres vs control [1] [%]	decrease of average cell numbers per secondary mammosphere [1] [%]	decrease of primary mammosphere formation vs control [1] [%]	decrease of secondary mammospheres vs control [1] [%]	effect of Cyclopamine on the effects of Gli1 or Gli2 overexpression [1]	effects on mammosphere formation, lowest dose [1]	effect on branch formation [4]
CCCC[C@@H](C=O)NC(=O)[C@H](CC(C)C)NC(=O)[C@H](CC(C)C)NC(=O)OCc1ccccc1 [GSI, Z-Leu-Leu-Nle-CHO] (Cbz-Leu-Leu-[Nle]-aldehyde)	did not block	blocked	not	completely blocked	completely blocked	not	–	–	–	–	–	–	–	–	–	–	–
CC1=C2C[C@H]3[C@@H](CC=C4C[C@@H](O)CC[C@@]43C)[C@@H]2CC[C@]12O[C@@H]1C[C@H](C)CN[C@H]1[C@H]2C [Cyclopamine]	–	–	partially blocked	partially blocked and not	–	blocked	reversal of inhibition	reversed	not	blocked	51	56	45	54	unaffected	no effects	almost completely blocked branch formation
